Measurements from ChEMBL document CHEMBL1137234, “Correlation between brain/plasma ratios and efficacy in neuropathic pain models of selective metabotropic glutamate receptor 1 antagonists” (Bioorg Med Chem Lett, 2006).

Assays:
[1] = test system: Rattus norvegicus; assay: Efficacy in ip dosed rat Chung spinal nerve L5/L6 ligation pain model after 30 mins; type: functional; conditions: 0.5 h
[2] = target: Metabotropic glutamate receptor 1 (Rattus norvegicus, UniProt P23385); assay: Antagonist activity at rat mGluR1 expressed in 1321N1 cells; type: functional, cell-based
[3] = target: Metabotropic glutamate receptor 5 (Rattus norvegicus, UniProt P31424); assay: Antagonist activity at rat mGluR5 expressed in 1321N1 cells; type: functional, cell-based
[4] = test system: Rattus norvegicus; assay: Efficacy in rat Chung spinal nerve L5/L6 ligation pain model after 30 mins at 100 umol/kg, ip; type: functional
[5] = test system: Rattus norvegicus; assay: Drug level in rat brain at 30 umol/kg, ip; type: ADME, organism-based; conditions: in vivo
[6] = species: Rattus norvegicus; assay: Free drug level in rat brain; type: ADME, organism-based; conditions: in vivo
[7] = species: Rattus norvegicus; assay: Protein binding in rat brain; type: ADME, organism-based; conditions: in vivo
[8] = test system: Rattus norvegicus; assay: Efficacy in ip dosed rat osteoarthritic pain model after 30 mins; type: functional; conditions: 0.5 h
[9] = test system: Rattus norvegicus; assay: Activity in ip dosed rat locomotor model; type: functional
[10] = test system: Rattus norvegicus; assay: Activity in ip dosed rat Rotarod model; type: functional
[11] = target: Metabotropic glutamate receptor 2 (Homo sapiens, UniProt Q14416); assay: Antagonist activity at human mGluR2 expressed in 1321N1 cells; type: functional, cell-based
[12] = target: Metabotropic glutamate receptor 4 (Homo sapiens, UniProt Q14833); assay: Antagonist activity at human mGluR4 expressed in 1321N1 cells; type: functional, cell-based
[13] = target: Metabotropic glutamate receptor 7 (Homo sapiens, UniProt Q14831); assay: Antagonist activity at human mGluR7 expressed in 1321N1 cells; type: functional, cell-based
[14] = test system: Rattus norvegicus; assay: Efficacy in ip dosed rat CFA model after 30 mins; type: functional; conditions: 0.5 h
[15] = test system: Rattus norvegicus; assay: Efficacy in ip dosed rat Carrageenan model after 30 mins; type: functional; conditions: 0.5 h
[16] = test system: Rattus norvegicus; assay: Efficacy in ip dosed rat skin incision model after 30 mins; type: functional; conditions: 0.5 h
[17] = test system: Rattus norvegicus; assay: Efficacy in ip dosed rat formalin model after 30 mins; type: functional; conditions: 0.5 h

Chain of Metabotropic glutamate receptor 5 (P31424 whole entry): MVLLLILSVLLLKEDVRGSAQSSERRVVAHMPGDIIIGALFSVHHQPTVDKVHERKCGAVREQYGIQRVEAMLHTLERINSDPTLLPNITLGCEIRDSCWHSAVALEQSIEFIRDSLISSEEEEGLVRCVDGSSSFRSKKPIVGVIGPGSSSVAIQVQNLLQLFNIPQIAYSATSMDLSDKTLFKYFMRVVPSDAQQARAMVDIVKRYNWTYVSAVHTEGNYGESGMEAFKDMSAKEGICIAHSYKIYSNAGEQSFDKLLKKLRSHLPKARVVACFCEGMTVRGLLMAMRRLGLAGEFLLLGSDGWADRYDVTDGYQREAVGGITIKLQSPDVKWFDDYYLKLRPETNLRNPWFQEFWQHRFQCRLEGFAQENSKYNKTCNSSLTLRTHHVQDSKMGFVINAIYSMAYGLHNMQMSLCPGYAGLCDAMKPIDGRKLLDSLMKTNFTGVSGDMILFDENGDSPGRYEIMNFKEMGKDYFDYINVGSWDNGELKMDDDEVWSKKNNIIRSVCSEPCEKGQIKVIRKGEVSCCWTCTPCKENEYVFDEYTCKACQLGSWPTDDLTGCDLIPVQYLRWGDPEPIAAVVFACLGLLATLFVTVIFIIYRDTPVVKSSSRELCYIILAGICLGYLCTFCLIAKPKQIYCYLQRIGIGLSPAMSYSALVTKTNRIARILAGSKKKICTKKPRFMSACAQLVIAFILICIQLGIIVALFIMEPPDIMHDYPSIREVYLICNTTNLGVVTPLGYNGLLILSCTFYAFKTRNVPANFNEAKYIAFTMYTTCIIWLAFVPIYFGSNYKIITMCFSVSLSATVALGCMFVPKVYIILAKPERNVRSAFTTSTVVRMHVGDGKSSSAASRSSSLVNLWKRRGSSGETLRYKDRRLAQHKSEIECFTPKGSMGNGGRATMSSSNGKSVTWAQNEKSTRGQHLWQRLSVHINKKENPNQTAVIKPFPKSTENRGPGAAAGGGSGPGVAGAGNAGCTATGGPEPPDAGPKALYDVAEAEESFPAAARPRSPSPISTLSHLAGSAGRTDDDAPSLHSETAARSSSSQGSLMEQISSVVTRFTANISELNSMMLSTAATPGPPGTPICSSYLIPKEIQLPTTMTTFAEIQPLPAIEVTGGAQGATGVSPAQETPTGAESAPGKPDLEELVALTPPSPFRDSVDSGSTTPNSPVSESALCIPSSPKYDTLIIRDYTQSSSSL
Chain of Metabotropic glutamate receptor 1 (P23385 whole entry): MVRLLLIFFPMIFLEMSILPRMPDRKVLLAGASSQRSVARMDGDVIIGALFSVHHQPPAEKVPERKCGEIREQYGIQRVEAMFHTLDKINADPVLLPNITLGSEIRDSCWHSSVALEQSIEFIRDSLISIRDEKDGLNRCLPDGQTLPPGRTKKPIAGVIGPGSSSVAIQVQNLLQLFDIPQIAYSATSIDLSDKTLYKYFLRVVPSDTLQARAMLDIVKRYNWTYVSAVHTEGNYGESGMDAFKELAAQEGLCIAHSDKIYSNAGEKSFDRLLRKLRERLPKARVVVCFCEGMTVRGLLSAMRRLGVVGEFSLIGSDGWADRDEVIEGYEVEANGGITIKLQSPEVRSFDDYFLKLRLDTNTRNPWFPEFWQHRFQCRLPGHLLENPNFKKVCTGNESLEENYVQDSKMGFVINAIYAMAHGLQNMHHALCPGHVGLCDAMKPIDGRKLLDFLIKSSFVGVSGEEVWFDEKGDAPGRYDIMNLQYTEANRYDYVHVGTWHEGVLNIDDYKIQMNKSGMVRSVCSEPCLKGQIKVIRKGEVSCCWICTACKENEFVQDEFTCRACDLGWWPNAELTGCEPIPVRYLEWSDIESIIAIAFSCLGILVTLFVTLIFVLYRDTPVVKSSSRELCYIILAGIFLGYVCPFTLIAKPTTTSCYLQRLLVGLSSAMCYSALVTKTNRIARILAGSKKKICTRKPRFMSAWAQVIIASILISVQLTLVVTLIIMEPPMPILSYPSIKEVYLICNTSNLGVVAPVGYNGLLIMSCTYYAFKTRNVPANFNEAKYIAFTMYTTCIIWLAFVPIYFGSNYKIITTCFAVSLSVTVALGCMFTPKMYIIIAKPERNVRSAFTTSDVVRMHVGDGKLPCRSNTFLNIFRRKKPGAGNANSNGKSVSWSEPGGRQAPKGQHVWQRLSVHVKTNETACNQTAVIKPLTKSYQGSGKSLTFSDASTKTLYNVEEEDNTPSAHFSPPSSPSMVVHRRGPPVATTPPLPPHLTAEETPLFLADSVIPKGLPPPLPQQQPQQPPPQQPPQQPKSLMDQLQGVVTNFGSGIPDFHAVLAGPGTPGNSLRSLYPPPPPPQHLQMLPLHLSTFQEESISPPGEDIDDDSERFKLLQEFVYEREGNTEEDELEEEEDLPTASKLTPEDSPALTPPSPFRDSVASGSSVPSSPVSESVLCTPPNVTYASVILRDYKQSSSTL
Chain of Metabotropic glutamate receptor 4 (Q14833 whole entry): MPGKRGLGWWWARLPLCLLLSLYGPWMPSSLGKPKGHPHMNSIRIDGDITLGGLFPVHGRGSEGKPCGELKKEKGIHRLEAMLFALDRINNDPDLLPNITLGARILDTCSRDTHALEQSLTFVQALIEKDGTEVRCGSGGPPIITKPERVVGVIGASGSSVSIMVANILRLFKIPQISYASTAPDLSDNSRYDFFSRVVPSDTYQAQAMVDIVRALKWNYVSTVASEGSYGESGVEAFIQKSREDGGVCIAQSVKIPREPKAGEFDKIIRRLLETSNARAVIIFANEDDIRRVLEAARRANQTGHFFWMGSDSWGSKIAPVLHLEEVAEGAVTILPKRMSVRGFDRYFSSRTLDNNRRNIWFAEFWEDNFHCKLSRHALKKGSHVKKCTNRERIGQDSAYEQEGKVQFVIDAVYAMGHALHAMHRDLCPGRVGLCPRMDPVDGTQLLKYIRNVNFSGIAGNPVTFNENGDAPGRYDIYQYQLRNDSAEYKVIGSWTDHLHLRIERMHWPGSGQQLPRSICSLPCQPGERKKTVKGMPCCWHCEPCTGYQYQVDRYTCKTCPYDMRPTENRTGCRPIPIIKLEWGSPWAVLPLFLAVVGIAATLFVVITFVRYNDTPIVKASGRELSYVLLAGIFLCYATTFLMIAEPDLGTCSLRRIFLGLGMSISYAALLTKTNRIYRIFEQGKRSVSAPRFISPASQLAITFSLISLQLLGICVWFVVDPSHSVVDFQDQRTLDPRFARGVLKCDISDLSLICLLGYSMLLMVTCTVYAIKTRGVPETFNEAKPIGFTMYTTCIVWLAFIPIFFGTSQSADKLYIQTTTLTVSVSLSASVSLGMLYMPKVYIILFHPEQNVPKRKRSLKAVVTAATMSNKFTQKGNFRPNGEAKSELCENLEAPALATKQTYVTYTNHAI
Chain of Metabotropic glutamate receptor 7 (Q14831 whole entry): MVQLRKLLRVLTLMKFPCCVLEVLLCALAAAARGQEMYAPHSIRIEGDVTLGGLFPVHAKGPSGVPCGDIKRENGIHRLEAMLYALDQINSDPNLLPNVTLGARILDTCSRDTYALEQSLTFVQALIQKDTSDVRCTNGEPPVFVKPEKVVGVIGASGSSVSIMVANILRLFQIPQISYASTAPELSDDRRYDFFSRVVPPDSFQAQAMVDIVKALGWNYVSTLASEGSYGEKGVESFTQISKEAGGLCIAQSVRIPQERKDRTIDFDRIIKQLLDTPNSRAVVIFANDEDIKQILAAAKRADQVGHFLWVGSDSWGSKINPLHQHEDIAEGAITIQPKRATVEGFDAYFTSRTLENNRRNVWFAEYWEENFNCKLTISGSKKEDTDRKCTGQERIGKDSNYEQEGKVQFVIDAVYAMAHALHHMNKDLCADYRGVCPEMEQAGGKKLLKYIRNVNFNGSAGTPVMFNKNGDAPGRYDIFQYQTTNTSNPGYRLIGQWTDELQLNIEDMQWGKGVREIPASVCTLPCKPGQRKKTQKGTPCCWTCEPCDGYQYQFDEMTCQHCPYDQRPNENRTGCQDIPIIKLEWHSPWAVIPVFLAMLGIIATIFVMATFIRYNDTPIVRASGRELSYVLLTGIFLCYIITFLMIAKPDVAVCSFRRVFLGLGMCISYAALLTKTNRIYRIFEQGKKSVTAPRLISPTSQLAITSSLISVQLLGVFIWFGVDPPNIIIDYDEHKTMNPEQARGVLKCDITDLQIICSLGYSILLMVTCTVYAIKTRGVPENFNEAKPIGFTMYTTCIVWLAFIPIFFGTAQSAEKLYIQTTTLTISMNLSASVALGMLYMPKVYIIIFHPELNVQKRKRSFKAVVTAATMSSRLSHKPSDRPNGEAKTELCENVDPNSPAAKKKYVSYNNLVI
Chain of Metabotropic glutamate receptor 2 (Q14416 whole entry): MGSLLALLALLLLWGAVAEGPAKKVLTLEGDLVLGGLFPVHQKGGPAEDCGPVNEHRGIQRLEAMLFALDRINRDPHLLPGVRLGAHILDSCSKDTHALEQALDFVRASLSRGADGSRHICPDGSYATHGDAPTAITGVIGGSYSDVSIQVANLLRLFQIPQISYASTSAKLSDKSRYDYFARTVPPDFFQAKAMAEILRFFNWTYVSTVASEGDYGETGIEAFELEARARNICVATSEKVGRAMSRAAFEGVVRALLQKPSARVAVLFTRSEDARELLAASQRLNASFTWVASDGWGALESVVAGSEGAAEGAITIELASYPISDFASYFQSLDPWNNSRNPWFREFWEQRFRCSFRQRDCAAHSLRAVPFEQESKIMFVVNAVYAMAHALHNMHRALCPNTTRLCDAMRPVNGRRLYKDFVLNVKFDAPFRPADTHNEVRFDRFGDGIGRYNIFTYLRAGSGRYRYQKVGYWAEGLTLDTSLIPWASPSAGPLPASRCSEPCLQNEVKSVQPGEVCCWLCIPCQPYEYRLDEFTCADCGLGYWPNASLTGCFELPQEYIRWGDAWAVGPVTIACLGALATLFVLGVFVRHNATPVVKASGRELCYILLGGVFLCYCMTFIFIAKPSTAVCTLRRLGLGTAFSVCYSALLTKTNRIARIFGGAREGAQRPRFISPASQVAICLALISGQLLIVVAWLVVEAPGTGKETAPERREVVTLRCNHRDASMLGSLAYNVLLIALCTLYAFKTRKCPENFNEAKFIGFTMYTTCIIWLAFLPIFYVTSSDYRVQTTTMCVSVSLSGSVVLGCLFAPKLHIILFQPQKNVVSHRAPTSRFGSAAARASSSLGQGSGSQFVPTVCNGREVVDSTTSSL

Row | SMILES | IC50 [2] [nM] | IC50 [3] [nM] | Activity [5] [ng/g] | Activity [6] [ng/g] | Activity [7] [%] | IC50 [11] [nM] | IC50 [12] [nM] | IC50 [13] [nM] | ED50 [1] [µmol/kg] | Efficacy [4] [%] | ED50 [8] [µmol/kg] | ED50 [9] [µmol/kg] | ED50 [10] [µmol/kg] | ED50 [14] [µmol/kg] | ED50 [15] [µmol/kg] | ED50 [16] [µmol/kg] | ED50 [17] [µmol/kg]
1 | Cc1ccc(-n2cnc3c(sc4cncc(N(C)C)c43)c2=O)cc1F | 21 | > 10000 | 125 | 0.13 | 99.9 | – | – | – | 55 | 72 | – | – | – | – | – | – | –
2 | CN(C)c1ccnc2sc3c(=O)n(N4CCCCCC4)cnc3c12 | 1 | > 10000 | 851 | – | – | – | – | – | 22 | 100 | – | – | – | – | – | – | –
3 | CCc1ccc(-n2cnc3c(sc4nccc(N(C)C)c43)c2=O)cc1 | 5 | 1330 | 1180 | 25.5 | 97.8 | > 10000 | > 10000 | > 10000 | > 100 | 41 | 29 | > 100 | > 300 | 15 | 11 | 47 | 19

Now from value to compound, other results behind:

Row | IC50 [2] [nM] | IC50 [3] [nM] | Activity [5] [ng/g] | Activity [6] [ng/g] | Activity [7] [%] | IC50 [11] [nM] | IC50 [12] [nM] | IC50 [13] [nM] | SMILES | ED50 [1] [µmol/kg] | Efficacy [4] [%] | ED50 [8] [µmol/kg] | ED50 [9] [µmol/kg] | ED50 [10] [µmol/kg] | ED50 [14] [µmol/kg] | ED50 [15] [µmol/kg] | ED50 [16] [µmol/kg] | ED50 [17] [µmol/kg]
4 | 33 | > 10000 | – | – | – | – | – | – | C[N+](C)([O-])c1ccnc2sc3c(=O)n(N4CCCCCC4)cnc3c12 | – | 12 | – | – | – | – | – | – | –
5 | 52 | > 10000 | – | – | – | – | – | – | CCc1ccc(-n2cnc3c(sc4nccc(N(C)CCc5ccccn5)c43)c2=O)cc1 | – | 11 | – | – | – | – | – | – | –
